ChEMBL document CHEMBL4041467, “Synthesis of novel 15-membered 8a-azahomoerythromycin A acylides: Consequences of structural modification at the C-3 and C-6 position on antibacterial activity” (Eur J Med Chem, 2017)
In brackets after ≈: the same amount, converted by molar mass.

Columns and labels:
[1] = AUC(0 to t) in Han Wistar rat at 10 mg/kg, iv by LC-MS/MS analysis; assay type: ADME, organism-based; settings: in vivo
Streptococcus pyogenes [2] = assay: Antibacterial activity against Mef-mediated macrolide efflux resistant Streptococcus pyogenes by agar microdilution method; assay type: functional
Streptococcus pneumoniae [3] = assay: Antibacterial activity against constitutively macrolide/lincosamide/streptogramin B-resistant Streptococcus pneumoniae by agar microdilution method; assay type: functional
Streptococcus pneumoniae [4] = assay: Antibacterial activity against Mef-mediated macrolide efflux resistant Streptococcus pneumoniae by agar microdilution method; assay type: functional
Staphylococcus aureus [5] = assay: Antibacterial activity against erythromycin susceptible Staphylococcus aureus by agar microdilution method; assay type: functional
Staphylococcus aureus [6] = assay: Antibacterial activity against erythromycin susceptible Staphylococcus aureus infected in mouse assessed as increase in mouse survival administered orally 1 hr post infection; assay type: functional; settings: po
[7] = Clearance in Han Wistar rat at 10 mg/kg, iv by LC-MS/MS analysis; assay type: ADME, organism-based; settings: in vivo
[8] = (§1) Protein binding in human plasma at 1 ug/ml by LC-MS/MS analysis; assay type: ADME, cell-free; settings: read-out: PPB (converted)
[9] = Metabolic stability in human liver microsomes assessed as parent compound remaining at 1 uM after 60 mins in presence of NADP by LC-MS/MS analysis; assay type: ADME, microsome; settings: read-out: Stability
[10] = Cmax in Han Wistar rat at 20 mg/kg, po by LC-MS/MS analysis; assay type: ADME, organism-based; set-up: dose 20 mg/kg, route oral; settings: in vivo
[11] = Cmax in Han Wistar rat at 10 mg/kg, iv by LC-MS/MS analysis; assay type: ADME, organism-based; set-up: dose 10 mg/kg, route intravenous; settings: in vivo
Staphylococcus aureus [12] = assay: Potency index, ratio of clarithromycin ED50 to compound ED50 for erythromycin susceptible Staphylococcus aureus infected in mouse; assay type: functional
Haemophilus influenzae = assay: Antibacterial activity against Haemophilus influenzae by agar microdilution method; assay type: functional
Streptococcus pyogenes [13] = assay: Antibacterial activity against constitutively macrolide/lincosamide/streptogramin B-resistant Streptococcus pyogenes by agar microdilution method; assay type: functional
[14] = Metabolic stability in mouse liver microsomes assessed as parent compound remaining at 1 uM after 60 mins in presence of NADP by LC-MS/MS analysis; assay type: ADME, microsome; settings: read-out: Stability
[15] = Protein binding in rat plasma at 1 ug/ml by LC-MS/MS analysis; assay type: ADME, cell-free; settings: read-out: PPB (converted)
Streptococcus pyogenes [16] = assay: Antibacterial activity against erythromycin susceptible Streptococcus pyogenes by agar microdilution method; assay type: functional
Streptococcus pneumoniae [17] = assay: Antibacterial activity against erythromycin susceptible Streptococcus pneumoniae infected in mouse assessed as increase in mouse survival administered orally 1 hr post infection; assay type: functional; settings: po
[18] = Protein binding in mouse plasma at 1 ug/ml by LC-MS/MS analysis; assay type: ADME, cell-free; settings: read-out: PPB (converted)
[19] = Terminal half life in Han Wistar rat at 10 mg/kg, iv by LC-MS/MS analysis; assay type: ADME, organism-based; settings: in vivo, read-out: beta t1/2 (converted)
Plasma [20] = assay: Stability in rat plasma at 1 uM up to 120 mins by LC-MS/MS analysis; assay type: ADME, cell-free; settings: 2 h
[21] = Volume of distribution at steady state in Han Wistar rat at 10 mg/kg, iv by LC-MS/MS analysis; assay type: ADME, organism-based; settings: in vivo, read-out: Vdss
Staphylococcus aureus [22] = assay: Antibacterial activity against inducibly macrolide/lincosamide/streptogramin B-resistant Staphylococcus aureus by agar microdilution method; assay type: functional
Rattus norvegicus = assay: Unbound clearance in Han Wistar rat at 10 mg/kg, iv by LC-MS/MS analysis; assay type: ADME, organism-based; settings: in vivo
[23] = AUC(0 to t) in Han Wistar rat at 20 mg/kg, po by LC-MS/MS analysis; assay type: ADME, organism-based; settings: in vivo
[24] = Oral bioavailability in Han Wistar rat at 20 mg/kg by LC-MS/MS analysis; assay type: ADME, organism-based; settings: in vivo
[25] = AUC(0 to infinity) in Han Wistar rat at 10 mg/kg, iv by LC-MS/MS analysis; assay type: ADME, organism-based; set-up: dose 10 mg/kg, route intravenous, time infinity; settings: in vivo
Liver [26] = assay: Intrinsic clearance in rat liver microsomes at 1 uM after 60 mins in presence of NADP by LC-MS/MS analysis; assay type: ADME, microsome; settings: 1 h
[27] = AUC(0 to infinity) in Han Wistar rat at 20 mg/kg, po by LC-MS/MS analysis; assay type: ADME, organism-based; set-up: dose 20 mg/kg, time infinity, route oral; settings: in vivo
Liver [28] = assay: Intrinsic clearance in mouse liver microsomes at 1 uM after 60 mins in presence of NADP by LC-MS/MS analysis; assay type: ADME, microsome; settings: 1 h
Streptococcus pneumoniae [29] = assay: Antibacterial activity against erythromycin susceptible Streptococcus pneumoniae by agar microdilution method; assay type: functional
[30] = Tmax in Han Wistar rat at 20 mg/kg, po by LC-MS/MS analysis; assay type: ADME, organism-based; settings: in vivo
[31] = Metabolic stability in rat liver microsomes assessed as parent compound remaining at 1 uM after 60 mins in presence of NADP by LC-MS/MS analysis; assay type: ADME, microsome; settings: read-out: Stability
Streptococcus pneumoniae [32] = assay: Potency index, ratio of clarithromycin ED50 to compound ED50 for erythromycin susceptible Streptococcus pneumoniae infected in mouse; assay type: functional
Staphylococcus aureus [33] = assay: Antibacterial activity against constitutively macrolide/lincosamide/streptogramin B-resistant Staphylococcus aureus by agar microdilution method; assay type: functional
[34] = Fraction unbound in Han Wistar rat plasma at 10 mg/kg, iv by LC-MS/MS analysis; assay type: ADME, organism-based
Liver [35] = assay: Intrinsic clearance in human liver microsomes at 1 uM after 60 mins in presence of NADP by LC-MS/MS analysis; assay type: ADME, microsome; settings: 1 h
[36] = AUC(0 to infinity) in Han Wistar rat at 30 mg/kg, po by LC-MS/MS analysis; assay type: ADME, organism-based; set-up: dose 30 mg/kg, time infinity, route oral; settings: in vivo
Plasma [37] = assay: Drug uptake in Han Wistar rat plasma at 30 mg/kg, po up to 4 hrs by LC-MS/MS analysis; assay type: ADME, organism-based; settings: in vivo
[38] = Oral bioavailability in Han Wistar rat at 30 mg/kg by LC-MS/MS analysis; assay type: ADME, organism-based; settings: in vivo
[39] = Cmax in Han Wistar rat at 30 mg/kg, po by LC-MS/MS analysis; assay type: ADME, organism-based; set-up: dose 30 mg/kg, route oral; settings: in vivo
[40] = Tmax in Han Wistar rat at 30 mg/kg, po by LC-MS/MS analysis; assay type: ADME, organism-based; settings: in vivo
Plasma [41] = assay: Drug uptake in Han Wistar rat plasma at 10 mg/kg, iv up to 8 hrs by LC-MS/MS analysis; assay type: ADME, organism-based; settings: in vivo
[42] = AUC(0 to t) in Han Wistar rat at 30 mg/kg, po by LC-MS/MS analysis; assay type: ADME, organism-based; settings: in vivo
Plasma [43] = assay: as §1; assay type: ADME, cell-free

SMILES | AUC(0-t) [1] [ng·h/mL] | MIC (Streptococcus pyogenes [2]) [µg/mL] | MIC (Streptococcus pneumoniae [3]) [µg/mL] | MIC (Staphylococcus aureus [5]) [µg/mL] | ED50 (Staphylococcus aureus [6]) [mg/kg] | clearance [7] [mL/min/kg] | fraction unbound at 1 ug/ml [8] | remaining at 1 h, 1 µM [9] [%] | Cmax [11] [ng/mL] | MIC (Haemophilus influenzae) [µg/mL] | MIC (Streptococcus pyogenes [13]) [µg/mL] | remaining at 1 h, 1 µM [14] [%] | fraction unbound at 1 ug/ml [15] | MIC (Streptococcus pyogenes [16]) [µg/mL] | ED50 (Streptococcus pneumoniae [17]) [mg/kg] | fraction unbound at 1 ug/ml [18] | half-life [19] [h] | Stability (Plasma [20]) | Vd [21] [L/kg] | remaining at 1 h, 1 µM [31] [%] | other results
CC[C@H]1OC(=O)[C@H](C)[C@@H](OC(=O)CCNCCNc2cc3c(=O)c(C(=O)O)cn(C4CC4)c3cc2Cl)[C@H](C)[C@@H](O[C@@H]2O[C@H](C)C[C@H](N(C)C)[C@H]2O)[C@](C)(OC/C=C/c2cnc3ccccc3c2)C[C@@H](C)NC(=O)[C@H](C)[C@@H](O)[C@]1(C)O | 4800 to 10000 | 0.25 (≈ 0.221 µM) | ≤ 0.125 | ≤ 0.125 | 6 | 20.3 | 0.4 | 100 | 2480 | 1 (≈ 0.882 µM) | 4 (≈ 3.53 µM) | 100 | 0.42 | ≤ 0.06 | 4.5 | 0.3 | 4.3 | Stable | 6.7 | 100 | MIC (Streptococcus pneumoniae [4]): ≤ 0.125 µg/mL; Cmax [10]: 630 ng/mL; Ratio ED50 (Staphylococcus aureus [12]): 4; MIC (Staphylococcus aureus [22]): 0.25 µg/mL (≈ 0.221 µM); CL free (Rattus norvegicus): 48.3 mL/min/kg; AUC(0-t) [23]: 2040 to 9730 ng·h/mL; bioavailability [24]: 41.8%; AUC(0-inf) [25]: 8510 ng·h/mL; CLH (Liver [26]): < 0.6 mL/min/g; AUC(0-inf) [27]: 7500 ng·h/mL; CLH (Liver [28]): < 0.6 mL/min/g; MIC (Streptococcus pneumoniae [29]): ≤ 0.06 µg/mL; Tmax [30]: 3.3 h; Ratio ED50 (Streptococcus pneumoniae [32]): 6; MIC (Staphylococcus aureus [33]): > 64 µg/mL; fraction unbound [34]: 0.42; CLH (Liver [35]): < 0.6 mL/min/g
C=CCO[C@]1(C)C[C@@H](C)NC(=O)[C@H](C)[C@@H](O)[C@](C)(O)[C@@H](CC)OC(=O)[C@H](C)[C@@H](OC(=O)CCNCCNc2cc3c(=O)c(C(=O)O)cn(C4CC4)c3cc2Cl)[C@H](C)[C@H]1O[C@@H]1O[C@H](C)C[C@H](N(C)C)[C@H]1O | 2450 to 5340 | 0.25 (≈ 0.248 µM) | 1 (≈ 0.993 µM) | ≤ 0.125 | 26.5 | 44.7 | 0.51 | 99 | 3870 | 2 (≈ 1.99 µM) | 4 (≈ 3.97 µM) | 100 | 0.63 | ≤ 0.125 | 46.5 | 0.45 | 1.6 | Stable | 3.2 | 100 | AUC(0-inf) [36]: 510 ng·h/mL; Drug uptake (Plasma [37]): Active; bioavailability [38]: 4.9%; Cmax [39]: 440 ng/mL; Tmax [40]: 0.31 h; MIC (Staphylococcus aureus [22]): 0.25 µg/mL (≈ 0.248 µM); CL free (Rattus norvegicus): 71 mL/min/kg; AUC(0-inf) [25]: 4080 ng·h/mL; CLH (Liver [26]): < 0.6 mL/min/g; CLH (Liver [28]): < 0.6 mL/min/g; MIC (Streptococcus pneumoniae [29]): ≤ 0.125 µg/mL; Drug uptake (Plasma [41]): Active; AUC(0-t) [42]: 50 to 520 ng·h/mL; MIC (Staphylococcus aureus [33]): > 64 µg/mL; fraction unbound [34]: 0.63; CLH (Liver [35]): < 0.6 mL/min/g
CC[C@H]1OC(=O)[C@H](C)[C@@H](O[C@H]2C[C@@](C)(OC)[C@@H](O)[C@H](C)O2)[C@H](C)[C@@H](O[C@@H]2O[C@H](C)C[C@H](N(C)C)[C@H]2O)[C@](C)(OC)C[C@@H](C)C(=O)[C@H](C)[C@@H](O)[C@]1(C)O [CLARITHROMYCIN] | – | – | – | – | 22.4 to 24.8 | – | – | 91 | – | – | – | 100 | 1 | – | 27.2 to 34.6 | 0.88 | – | – | – | 92.5 | PPB (Plasma [43]): 11%
